Data reported in patent publication US20230348376A1 (TEIJIN PHARMA LIMITED, priority 2020, published 2023).
pEC50: −log10 of the molar value.

Legend:
[1] = test system: rat oligodendrocyte progenitor cells; assay: Promotive activity of rat oligodendrocyte progenitor cell differentiation-2 (immunostaining of MBP); type: cell-based; conditions: vitamin D derivative 2 μM, T3 30 nM, 4 days
Method in brief: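 Rat OPCs prepared by shaking in separation medium about 22 h at 37 °C, 200 rpm, and collecting the supernatant.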

[2] = Evaluation of brain penetration in mice (blood and brain concentration at brain Cmax); type: in vivo, mouse; conditions: 1 mg/kg single oral dose, C57BL/6J mice; for Concentration in blood (mean ± SD) at brain Cmax / Concentration in brain (mean ± SD) at brain Cmax: n=3; for Kp: male, C57BL/6J, mouse, brain/plasma, po, 1 mg/kg, read-out: Concentration in brain/in blood ratio at brain Cmax
Protocol: The administration solution was administered orally to C57BL/6J mice (8 weeks old, male, n=3) at a single dose (1 mg/kg). Mice were euthanized at 6 points of 0.25, 0.5, 1, 2, 4, and 8 hours after administration, and plasma and brain sampling were performed. After preparing a homogenate from the collected brain using Tissue Lyser II (QIAGEN #85300), acetonitrile was added to the homogenate and the homogenate was centrifuged (12000 rpm, 5 minutes) to extract the administered test compound contained in the brain. Similarly, the plasma was subjected to addition of acetonitrile and centrifugal separation to extract the administered test compound contained in the plasma. Each extracted sample was subjected to measurement of the concentration of administered test compound using LC/MS/MS (SHIMADZU UFLC/MS/MS (8050)).
Test 2 [0.2 mg/kg Administration Study] […] The administration solution was administered orally to C57BL/6J mice (8 weeks old, male, n=3) at a single dose (0.2 mg/kg). Mice were euthanized at 6 points of 0.25, 0.5, 1, 2, 4, and 8 hours after administration, and plasma and brain sampling were performed. After preparing a homogenate from the collected brain using Tissue Lyser II (QIAGEN #85300), acetonitrile was added to the homogenate and the homogenate was centrifuged (12000 rpm, 5 minutes) to extract the administered compound contained in the brain. Similarly, the plasma was subjected to addition of acetonitrile and centrifugal separation to extract the administered test compound contained in the plasma. Each extracted sample was subjected to measurement of the concentration of administered test compound using LC/MS/MS (SHIMADZU UFLC/MS/MS (8050)).

human VDR = target: T1, human VDR (Homo sapiens, UniProt P11473); assay: Evaluation of VDR transcription activity in human osteoblasts (HOS cells), luciferase reporter; conditions: Activity (EC50, VDR transcription activity), HOS cells transfected with human VDR, human RXRα and DR3 luciferase reporter; 21 hours
T1 sequence (P11473 1-427): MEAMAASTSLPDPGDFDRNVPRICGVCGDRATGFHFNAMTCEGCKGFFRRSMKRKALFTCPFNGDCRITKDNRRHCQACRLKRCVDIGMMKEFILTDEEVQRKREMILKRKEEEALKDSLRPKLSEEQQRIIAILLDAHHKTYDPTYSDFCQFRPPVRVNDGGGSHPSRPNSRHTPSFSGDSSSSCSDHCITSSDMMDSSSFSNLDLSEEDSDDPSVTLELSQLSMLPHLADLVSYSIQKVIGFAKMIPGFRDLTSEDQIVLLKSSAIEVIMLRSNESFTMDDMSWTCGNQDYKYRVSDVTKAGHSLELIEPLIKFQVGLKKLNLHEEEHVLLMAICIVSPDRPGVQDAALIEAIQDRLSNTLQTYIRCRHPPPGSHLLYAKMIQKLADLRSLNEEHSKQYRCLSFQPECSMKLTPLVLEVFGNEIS
T1 sequence (P19793 1-462 partner): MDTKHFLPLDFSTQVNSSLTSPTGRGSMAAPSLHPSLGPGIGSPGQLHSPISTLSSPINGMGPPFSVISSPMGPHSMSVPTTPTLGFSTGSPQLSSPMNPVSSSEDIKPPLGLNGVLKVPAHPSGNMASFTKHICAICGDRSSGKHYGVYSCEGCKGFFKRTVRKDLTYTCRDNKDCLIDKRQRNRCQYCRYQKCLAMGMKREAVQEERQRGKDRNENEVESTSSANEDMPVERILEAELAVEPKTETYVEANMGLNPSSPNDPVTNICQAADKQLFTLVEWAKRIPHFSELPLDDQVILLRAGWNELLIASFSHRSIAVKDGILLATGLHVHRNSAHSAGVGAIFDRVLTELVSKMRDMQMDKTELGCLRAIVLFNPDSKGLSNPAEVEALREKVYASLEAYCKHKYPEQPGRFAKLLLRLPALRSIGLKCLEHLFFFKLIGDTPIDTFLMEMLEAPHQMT

Compound | Mean (number of MBP-positive cells/number of Hoechst33342-positive cells) ([1]; Test 2) | Concentration in blood (mean ± SD) at brain Cmax [2] | Concentration in brain (mean ± SD) at brain Cmax [2] | Kp [2] | pEC50 (human VDR) | Concentration in brain/in blood ratio at brain Cmax [2] | Mean (number of MBP-positive cells/number of Hoechst33342-positive cells) ([1]; Test 1) | Mean (number of MBP-positive cells/number of Hoechst33342-positive cells) ([1]; Test 9) | Mean (number of MBP-positive cells/number of Hoechst33342-positive cells) ([1]; Test 4)
C=C1[C@H](O)CC(=C/C=C2\CCC[C@]3(C)[C@@H]([C@H](C)CN4CCCC(O)(C(F)F)C4)CC[C@@H]23)C[C@H]1O (single isomer, unassigned) [Compound C036a] | 0.53 | 849 ± 40 nM | 566 ± 89 pmol/g | 0.67 | > 9.00 | – | – | – | –
C=C1[C@H](O)CC(=C/C=C2\CCC[C@]3(C)[C@@H]([C@H](C)CN4CCCC(O)(C(F)F)C4)CC[C@@H]23)C[C@H]1O (single isomer, unassigned) [Compound C036b] | 0.22 | 853 ± 89 nM | 495 ± 16 pmol/g | – | 7.00 to 8.00 | 0.58 | – | – | –
C=C1/C(=C\C=C2/CCC[C@]3(C)[C@@H]([C@H](C)CN4CC[C@H](C(F)F)C4)CC[C@@H]23)C[C@@H](O)C[C@@H]1O [Compound B020, (1R,3S,Z)-5-(2-((1R,3aS,7aR,E)-1-((S)-1-((S)-3-(difluoromethyl)pyrrolidin-1-yl)propan-2-yl)-7a-methyloctahydro-4H-inden-4-ylidene)ethylidene)-4-methylenecyclohexane-1,3-diol] | – | 676 ± 175 nM | 410 ± 23 pmol/g | 0.61 | 7.00 to 8.00 | – | 0.38 | – | –
C[C@H](CN1CC[C@H](C(F)F)C1)[C@H]1CC[C@H]2/C(=C/C=C3C[C@@H](O)C[C@H](O)C3)CCC[C@]12C [Compound B022, (1R,3R)-5-(2-((1R,3aS,7aR,E)-1-((S)-1-((S)-3-(difluoromethyl)pyrrolidin-1-yl)propan-2-yl)-7a-methyloctahydro-4H-inden-4-ylidene)ethylidene)cyclohexane-1,3-diol] | – | 316 ± 84 nM | 529 ± 53 pmol/g | 1.67 | 7.00 to 8.00 | – | 0.47 | – | –
C=C1[C@H](O)CC(=C/C=C2\CCC[C@]3(C)[C@@H]([C@H](C)CN4CC[C@H](C(F)F)C4)CC[C@@H]23)C[C@H]1O [Compound B023, (1R,3R)-5-(2-((1R,3aS,7aR,E)-1-((S)-1-((S)-3-(difluoromethyl)pyrrolidin-1-yl)propan-2-yl)-7a-methyloctahydro-4H-inden-4-ylidene)ethylidene)-2-methylenecyclohexane-1,3-diol] | – | 248 ± 28 nM | 852 ± 48 pmol/g | 3.44 | 8.00 to 9.00 | – | 0.50 | – | –
C=C1/C(=C\C=C2/CCC[C@]3(C)[C@@H]([C@H](C)CN4CC[C@H](C(C)(F)F)C4)CC[C@@H]23)C[C@@H](O)[C@H](C)[C@@H]1O [Compound B029, (1R,2S,3S,Z)-5-(2-((1R,3aS,7aR,E)-1-((S)-1-((S)-3-(1,1-difluoroethyl)pyrrolidin-1-yl)propan-2-yl)-7a-methyloctahydro-4H-inden-4-ylidene)ethylidene)-2-methyl-4-methylenecyclohexane-1,3-diol] | – | 161 ± 40 nM | 156 ± 15 pmol/g | 0.97 | 8.00 to 9.00 | – | 0.31 | – | –
C=C1/C(=C\C=C2/CCC[C@]3(C)[C@@H]([C@H](C)CN4CC[C@H](CC(F)F)C4)CC[C@@H]23)C[C@@H](O)C[C@@H]1O [Compound B036] | – | 61 ± 11 nM | 68 ± 36 pmol/g | 1.12 | 7.00 to 8.00 | – | 0.59 | – | –
C[C@H](CN1CC[C@@H](OCC(F)F)C1)[C@H]1CC[C@H]2/C(=C/C=C3C[C@@H](O)C[C@H](O)C3)CCC[C@]12C [Compound B058, (1R,3R)-5-(2-((1R,3aS,7aR,E)-1-((S)-1-((R)-3-(2,2-difluoroethoxy)pyrrolidin-1-yl)propan-2-yl)-7a-methyloctahydro-4H-inden-4-ylidene)ethylidene)cyclohexane-1,3-diol] | 0.49 | 78 ± 15 nM | 67 ± 9 pmol/g | 0.86 | – | – | – | – | –
C=C1/C(=C\C=C2/CCC[C@]3(C)[C@@H]([C@H](C)CN4CCCC[C@H]4C)CC[C@@H]23)C[C@@H](O)C[C@H]1O [Compound I002, (1R,3R,Z)-5-(2-((1R,3aS,7aR,E)-7a-methyl-1-((S)-1-((R)-2-methylpiperidin-1-yl)propan-2-yl)octahydro-4H-inden-4-ylidene)ethylidene)-4-methylenecyclohexane-1,3-diol] | – | – | – | – | – | – | – | 0.31 | –
C=C1/C(=C\C=C2/CCC[C@]3(C)[C@@H]([C@H](C)CN4CCCCC4(C)C)CC[C@@H]23)C[C@@H](O)C[C@H]1O [Compound I003, (1R,3R,Z)-5-(2-((1R,3aS,7aR,E)-1-((S)-1-(2,2-dimethylpiperidin-1-yl)propan-2-yl)-7a-methyloctahydro-4H-inden-4-ylidene)ethylidene)-4-methylenecyclohexane-1,3-diol] | – | – | – | – | – | – | – | 0.33 | –
C=C1/C(=C\C=C2/CCC[C@]3(C)[C@@H]([C@H](C)CN4CCOC[C@@H]4C)CC[C@@H]23)C[C@@H](O)C[C@H]1O [Compound I004, (1R,3R,Z)-5-(2-((1R,3aS,7aR,E)-7a-methyl-1-((S)-1-((S)-3-methylmorpholino)propan-2-yl)octahydro-4H-inden-4-ylidene)ethylidene)-4-methylenecyclohexane-1,3-diol] | – | – | – | – | – | – | – | – | 0.44
C=C1/C(=C\C=C2/CCC[C@]3(C)[C@@H]([C@H](C)CN4CCOC[C@H]4C)CC[C@@H]23)C[C@@H](O)C[C@H]1O [Compound I005, (1R,3R,Z)-5-(2-((1R,3aS,7aR,E)-7a-methyl-1-((S)-1-((R)-3-methylmorpholino)propan-2-yl)octahydro-4H-inden-4-ylidene)ethylidene)-4-methylenecyclohexane-1,3-diol] | – | – | – | – | – | – | – | – | 0.43
C=C1/C(=C\C=C2/CCC[C@]3(C)[C@@H]([C@H](C)CN4CCOCC4(C)C)CC[C@@H]23)C[C@@H](O)C[C@H]1O [Compound I006, (1R,3R,Z)-5-(2-((1R,3aS,7aR,E)-1-((S)-1-(3,3-dimethylmorpholino)propan-2-yl)-7a-methyloctahydro-4H-inden-4-ylidene)ethylidene)-4-methylenecyclohexane-1,3-diol] | – | – | – | – | – | – | – | – | 0.51
